The values that follow come from patent US10266527B2, “T-box riboswitch-binding anti-bacterial compounds” (THE RESEARCH FOUNDATION FOR THE STATE UNIVERSITY OF NEW YORK, priority 2013, dated 2019).

Assay type in all cases: cell-based
The test system of data set [1] is S. pneumoniae ATCC 49619. In words: Broth microdilution MIC. Particulars: for MIC: S. pneumoniae ATCC 49619.
Data set [2] deals with E. faecalis ATCC 29212. In words: Broth microdilution MIC. For orientation: In broth dilution the organism is exposed to a series of concentrations in liquid medium.
Data set [3] has as its system S. aureus ATCC 29213. In words: Broth microdilution MIC. The settings on record: for MIC: S. aureus ATCC 29213, N/O = not observed. The source says: (§1) The identity and purity of both PKZ 6 and 18 was confirmed by mass spectroscopy. Forty commercially available compounds chosen on the basis of initial in silico selections and similarity to our two hits were screened by disc diffusion assay (DDA) to determine their relative antibacterial activity with S. aureus. […] These 14 compounds were further evaluated by minimum inhibitory concentration assays (MIC)^41,42, and minimum bactericidal assays (MBC)^41 to confirm antibacterial activity, determine the concentration at which S. aureus growth is inhibited in liquid culture (MIC) and if they are acting as bacteriostatic or bactericidal agents (MBC). […] Representative embodiments are shown below.
(§2) Broth microdilution assays^77, 78 were performed with B. subtilis, and S. aureus to determine the lowest compound concentration inhibiting visible growth, i.e., minimum inhibitory concentration (MIC) of the 4 original compounds. […] The insolubility of the fourth compound may account for its lack of antibacterial activity. […] The MICs of each compound are moderate.
(§3) Strains were grown on trypticase soy agar (TSA) with 5% sheep blood at 37° C. for 24 hours. Five isolated colonies were used to inoculate 5 mL cation-adjusted Mueller-Hinton broth (CAMHB) contained in a 50 mL centrifuge tube. The resulting culture was incubated shaking at 200 rpm for 3 hours at 37° C. and then diluted in CAMHB until its turbidity matched that of a 0.5 McFarland standard (OD625 0.08-0.10). After the culture had been standardized against a 0.5 McFarland standard, it was diluted 1:10 in CAMHB and then 5 μL of this dilution was added to the appropriate wells of a 96-well, flat-bottomed tissue culture plate in which each row contained a twofold dilution series of a particular compound ranging in concentration from 0.25 μg/mL to 512 μg/mL. Each plate also included a sterility control well containing CAMHB to which standardized inoculum was not added and a growth control well containing CAMHB to which 5 μL standardized inoculum was added. […] With the exception of the sterility control well, all wells were inoculated within 15 minutes of inoculum preparation to ensure that the starting concentration of bacteria in each well was approximately 5×10^5 CFU/m L. A Tecan Sunrise microplate absorbance reader was used to measure the OD620 of each well before and after 20 h incubation at 37° C. MIC values were recorded as the lowest compound concentration at which no visible growth was observed after this incubation period.

The test system of data set [4] is B. cereus ATCC 7064. In words: MBC determination. On the procedure:
(§4) Following 24 h incubation of these subcultures at 37° C., MBC values were recorded as the lowest compound concentration at which no viable colonies were observed.

For data set [5], the system named is E. coli ATCC 25922. The data set is described as follows: MBC determination. Particulars: E. coli ATCC 25922. The method, then: as §4
The subject of data set [6] is E. faecalis ATCC 29212. In words: MBC determination. Particulars: N/O = not observed. The method, then:
as §4

The subject of data set [7] is B. subtilis BGSC 1A1. The data set is described as follows: MBC determination. Particulars: IND = indeterminate. On the procedure: as §4
The subject of data set [8] is B. subtilis. The data set is described as follows: Disc diffusion assay, growth inhibition of B. subtilis. Particulars: Table 1, ✓ = zone of inhibition observed. From the text:
The same 20 top binders and 8 additional predicted to interact with the cleft of the tyrRS mRNA Specifier Loop were selected from subsequent docking and preliminary fluorescence data.
(In general: A growth-free zone around the sample is the usual read-out of agar diffusion tests.)

Data set [9] has as its system E. coli ATCC 25922. In words: Broth microdilution MIC (Gram negative specificity control). The settings on record: for MIC: E. coli ATCC 25922, N/O = not observed.
In data set [10] the test system is B. cereus ATCC 7064. The data set is described as follows: Broth microdilution MIC. Particulars: for MIC: B. cereus ATCC 7064.
For data set [11], the system named is B. subtilis BGSC 1A1. In words: Broth microdilution MIC. Particulars: for MIC: B. subtilis BGSC 1A1, 20 h at 37° C. On the procedure:
as §2, §3

For data set [12], the system named is Human Embryonic Kidney (HEK293) cells. The data set is described as follows: Toxicity on a monolayer of HEK293 cells.
The test system of data set [13] is S. aureus ATCC 29213. In words: MBC determination. The settings on record: S. aureus ATCC 29213; N/O = not observed.
Excerpt: as §1, §4

Data set [14] deals with P. aeruginosa ATCC 27853. In words: Broth microdilution MIC. The settings on record: N/O = not observed.
Data set [15] relates to P. aeruginosa ATCC 27853. The data set is described as follows: MBC determination. On the procedure: as §4

≈ marks a conversion by molar mass, not a printed value. Like-named read-outs stand apart in the source and are kept apart here.

A word on the MBC: it is the lowest tested concentration that kills the bacteria rather than only halting them. Consider `O=C(NCCN1CCNCC1)c1c(O)c2cccc3c2n(c1=O)CCC3` [Compound 6], for which the MIC turned out to be 64 µg/mL (≈ 180 µM) in data set [1] (Streptococcus pneumoniae, ATCC49619, read-out: MIC); 128 µg/mL (≈ 359 µM) in data set [2] (Enterococcus faecalis, ATCC29212, N/O = not observed, read-out: MIC); 256 µg/mL (≈ 718 µM) in [3] (Staphylococcus aureus, ATCC29213, read-out: MIC); 256 µg/mL (≈ 718 µM) in data set [9] (Escherichia coli, ATCC25922, read-out: MIC); 128 µg/mL (≈ 359 µM) in data set [10] (Bacillus cereus, ATCC7064, read-out: MIC); 32 µg/mL (≈ 89.8 µM) in data set [11] (Bacillus subtilis, BGSC1A1, read-out: MIC). In addition, the MIC entry in data set [14] is “N/O (N/D)”. Further, the “growth inhibition of S. pneumoniae (in words)” value in data set [1] (at moderate concentrations) is “inhibited growth”. Moreover, the “antibacterial activity against S. aureus (in words)” value in data set [3] is recorded as “displayed antibacterial properties”; in data set [3] (listed as PKZ 6), “inhibited growth”. Besides, the MBC in data set [4] (Bacillus cereus, ATCC7064, N/O = not observed, read-out: MBC) was 256 µg/mL (≈ 718 µM); in data set [5] (Escherichia coli, ATCC25922, read-out: MBC) it was 256 µg/mL (≈ 718 µM); in [6] it was “N/O”; in [7], “IND”; in [13], “N/O”. Also, the ZOI observed entry in data set [8] is on record as “✓”. In addition, the “antibacterial activity against E. coli (in words)” value in [9] (E. coli negative control without T-box riboswitch) is “moderate antibacterial activity”. Moreover, the “growth inhibition of B. cereus (in words)” value in data set [10] (at moderate concentrations) is “inhibited growth”. Moreover, the entries for the “antibacterial activity against B. subtilis (in words)” value in [11] and in [11] (listed as PKZ 6) were “active” and “inhibited growth”, respectively. Besides, the “16 hr post exposure % Live” value turned out to be 100% in data set [12] (32 ug/ml), 60% in data set [12] (64 ug/ml) and 0% in data set [12] (128 ug/ml). Further, the “16 hr post exposure Morphology” value in [12] (32 ug/ml) was “Normal”; in data set [12] (64 ug/ml), “Mix of Normal and Detached”; in data set [12] (128 ug/ml), “Rounded and Detached”. The “24 hr post exposure % Confluent” value in data set [12] (32 ug/ml) worked out at 50%; in data set [12] (64 ug/ml) it was 15%; in [12] (128 ug/ml), 0%. The “24 hr post exposure % Live” value in [12] (32 ug/ml) is recorded as 70%; in data set [12] (64 ug/ml) it was 25%; in [12] (128 ug/ml), 0%. The “24 hr post exposure Morphology” value in data set [12] (64 ug/ml) was “Mix of Normal and Detached”; in data set [12] (128 ug/ml), “Rounded and Detached”.
For Gentamicin [reference compound], the MIC is 4 (N/D) μg/mL in data set [1]; 8 µg/mL in data set [2] (N/O = not observed); 0.5 µg/mL in data set [3]; 1 µg/mL in data set [9]; 1 µg/mL in data set [10]; 0.125 µg/mL in data set [11]. Moreover, in data set [14], the MIC is 1 µg/mL. Also, the MBC in data set [4] (N/O = not observed) was 2 µg/mL; in data set [15], 4 µg/mL; in data set [5], 1 µg/mL; in data set [6], 32 µg/mL; in data set [7] it was 0.25 µg/mL; in data set [13], 8 µg/mL.
